Patent US5432042A, “Method for obtaining a printing plate according to the silver salt diffusion transfer process” (Agfa-Gevaert, N.V., priority 1993, dated 1995)

Assay: pKa of the mercapto group by titration with hydrochloric acid
Type: physicochemical
Conditions: 0.002 mole/liter in water at pH 11, titrated with hydrochloric acid (0.1 mole/liter)
Procedure: The pKa of the hydrophobizing compounds in connection with the present invention were determined according to the method described in "Ionization Constants of Acids and Bases--A Laboratory Manual" written by Adrien Albert and E. P. Serjeant and Edited by John Wiley & Sons (New York) page 110-112 (1962).
In these particular cases, the hydrophobizing compounds were dissolved in water at pH 11. The concentration of the hydrophobizing compounds was 0.002 mole/liter and the mixture was then titrated with a solution of hydrochloric acid (0.1 mole/liter).

pKa	Compound
4.8	CCCCCCCc1nnc(S)o1 [2-mercapto-5-n.heptyl-oxa-3,4-diazole, reference compound]
3.3	CCCCCCNC(=O)Cn1nnnc1S [compound 1]
3.4	CCCCCCn1nnnc1S [compound 3]
